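Tested at 5 concentrations; 48 h exposure; 96-well plates; endpoints linearly interpolated, else capped at highest concentration. The concentration for 50% growth inhibition is given as GI50.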 Activity calls are given as the source filed them. No stated cut-off is given here; in the data, active = GI50 up to about 1.1 µM and inactive = higher.
What was measured:
Assay in all cases: NCI-60 cell line screen, 48 h
UO-31 = tested on: UO-31
SNB-75 = tested on: SNB-75
Malme-3M = tested on: Malme-3M
MDA-N = tested on: MDA-N
COLO 205 = tested on: COLO 205
M14 = tested on: M14
OVCAR-5 = tested on: OVCAR-5
BT-549 = tested on: BT-549
SF-268 = tested on: SF-268
NCI-H460 = tested on: NCI-H460
SK-MEL-28 = tested on: SK-MEL-28
ACHN = tested on: ACHN
SK-OV-3 = tested on: SK-OV-3
IGROV-1 = tested on: IGROV-1
UACC-62 = tested on: UACC-62
DU-145 = tested on: DU-145
NCI-H226 = tested on: NCI-H226
SK-MEL-2 = tested on: SK-MEL-2
EKVX = tested on: EKVX

Structure (SMILES)	GI50 (UO-31)	GI50 (SNB-75)	GI50 (Malme-3M)	GI50 (MDA-N)	GI50 (COLO 205)	GI50 (M14)	GI50 (OVCAR-5)	GI50 (BT-549)	GI50 (SF-268)	GI50 (NCI-H460)	GI50 (SK-MEL-28)	GI50 (ACHN)	GI50 (SK-OV-3)	GI50 (IGROV-1)	GI50 (UACC-62)	GI50 (DU-145)	GI50 (NCI-H226)	GI50 (SK-MEL-2)	GI50 (EKVX)
C/C(=N\NC(=S)Nc1ccc([N+](=O)[O-])cc1)c1nc2cccnc2[nH]1	0.322 µM (active)	1.38 µM (inactive)	1.36 µM (inactive)	1.78 µM (inactive)	2.44 µM (inactive)	1.26 µM (inactive)	1.08 µM (active)	0.452 µM (active)	0.278 µM (active)	0.379 µM (active)	0.698 µM (active)	0.378 µM (active)	1.16 µM (inactive)	0.942 µM (active)	0.447 µM (active)	1.21 µM (inactive)	0.504 µM (active)	1.31 µM (inactive)	0.227 µM (active)
CN(/N=C/c1ccnc2ccccc12)c1ccc(Cl)cc1[N+](=O)[O-]	> 100 µM (inactive)	26.6 µM (inactive)	70.3 µM (inactive)	> 100 µM (inactive)	> 100 µM (inactive)	> 100 µM (inactive)	> 100 µM (inactive)	6.95 µM (inactive)	80 µM (inactive)	> 100 µM (inactive)	–	> 100 µM (inactive)	> 100 µM (inactive)	> 100 µM (inactive)	> 100 µM (inactive)	> 100 µM (inactive)	> 100 µM (inactive)	> 100 µM (inactive)	12.2 µM (inactive)
C=CCN(c1cc(O)c2c(c(C)cn2S(=O)(=O)c2ccccc2)c1[N+](=O)[O-])S(C)(=O)=O	> 100 µM (inactive)	> 100 µM (inactive)	> 100 µM (inactive)	36.9 µM (inactive)	> 100 µM (inactive)	> 100 µM (inactive)	> 100 µM (inactive)	> 100 µM (inactive)	> 100 µM (inactive)	63.8 µM (inactive)	> 100 µM (inactive)	81.1 µM (inactive)	> 100 µM (inactive)	> 100 µM (inactive)	> 10 µM (inactive)	> 100 µM (inactive)	> 100 µM (inactive)	> 100 µM (inactive)	76.9 µM (inactive)
O/N=C1/Nc2cc(Cl)ccc2C(=S)N2CSCC12 (stereo not drawn)	> 100 µM (inactive)	> 100 µM (inactive)	> 100 µM (inactive)	> 100 µM (inactive)	> 100 µM (inactive)	> 100 µM (inactive)	> 100 µM (inactive)	> 100 µM (inactive)	> 100 µM (inactive)	> 100 µM (inactive)	> 100 µM (inactive)	> 100 µM (inactive)	> 100 µM (inactive)	> 100 µM (inactive)	> 100 µM (inactive)	> 100 µM (inactive)	> 100 µM (inactive)	> 100 µM (inactive)	> 100 µM (inactive)
O=C1C(c2c(O)[nH]c3ccc(Br)cc23)=Nc2ccccc21	2.74 µM (inactive)	11.2 µM (inactive)	4.91 µM (inactive)	14 µM (inactive)	5.65 µM (inactive)	11.3 µM (inactive)	11.9 µM (inactive)	19.5 µM (inactive)	9.62 µM (inactive)	12.7 µM (inactive)	29 µM (inactive)	3.06 µM (inactive)	13 µM (inactive)	0.562 µM (active)	12.2 µM (inactive)	6.81 µM (inactive)	15.1 µM (inactive)	11.9 µM (inactive)	2.93 µM (inactive)
Cc1nn(C(=O)c2ccc(Cl)cc2)c2c1C(c1ccc([N+](=O)[O-])cc1)SC(=N)N2 (stereo not drawn)	–	> 10 µM (inactive)	> 10 µM (inactive)	> 10 µM (inactive)	> 10 µM (inactive)	> 10 µM (inactive)	> 10 µM (inactive)	> 10 µM (inactive)	> 10 µM (inactive)	> 10 µM (inactive)	> 10 µM (inactive)	> 10 µM (inactive)	> 10 µM (inactive)	> 10 µM (inactive)	> 10 µM (inactive)	> 10 µM (inactive)	> 10 µM (inactive)	> 10 µM (inactive)	> 10 µM (inactive)
C=C[C@]1(C)CC[C@]2(C)C(CC[C@@]3(C)C2C[C@H](O)[C@H](O)[C@@]3(C)O)C1 (stereo partly drawn)	> 100 µM (inactive)	> 100 µM (inactive)	> 100 µM (inactive)	> 100 µM (inactive)	> 100 µM (inactive)	> 100 µM (inactive)	> 100 µM (inactive)	> 100 µM (inactive)	> 100 µM (inactive)	> 100 µM (inactive)	> 100 µM (inactive)	> 100 µM (inactive)	> 100 µM (inactive)	> 100 µM (inactive)	> 100 µM (inactive)	> 100 µM (inactive)	> 100 µM (inactive)	> 100 µM (inactive)	> 100 µM (inactive)
O=C(CCCn1ccnc1[N+](=O)[O-])NCCn1cnc([N+](=O)[O-])n1	> 100 µM (inactive)	> 100 µM (inactive)	> 100 µM (inactive)	> 100 µM (inactive)	> 100 µM (inactive)	> 100 µM (inactive)	> 100 µM (inactive)	> 100 µM (inactive)	> 100 µM (inactive)	> 100 µM (inactive)	> 100 µM (inactive)	> 100 µM (inactive)	> 100 µM (inactive)	> 100 µM (inactive)	> 100 µM (inactive)	> 100 µM (inactive)	> 100 µM (inactive)	> 100 µM (inactive)	–
CC(=O)Nc1c(S(=O)(=O)c2ccccc2)c(C)c(C)n1Cc1ccccc1	> 100 µM (inactive)	> 100 µM (inactive)	> 100 µM (inactive)	> 100 µM (inactive)	> 100 µM (inactive)	> 100 µM (inactive)	> 100 µM (inactive)	> 100 µM (inactive)	> 100 µM (inactive)	> 100 µM (inactive)	> 100 µM (inactive)	> 100 µM (inactive)	> 100 µM (inactive)	> 100 µM (inactive)	> 100 µM (inactive)	> 100 µM (inactive)	> 100 µM (inactive)	> 100 µM (inactive)	> 100 µM (inactive)
CC(C)(C)OC(=O)N/C(C=O)=C\C1CCCCC1	16.5 µM (inactive)	29.7 µM (inactive)	25.8 µM (inactive)	18.5 µM (inactive)	19.2 µM (inactive)	16.2 µM (inactive)	19.8 µM (inactive)	25.2 µM (inactive)	17.4 µM (inactive)	20.2 µM (inactive)	46.6 µM (inactive)	29.3 µM (inactive)	30 µM (inactive)	20.7 µM (inactive)	15.6 µM (inactive)	29 µM (inactive)	21.2 µM (inactive)	24.8 µM (inactive)	17.2 µM (inactive)
Cc1ccc(-c2nc(N/N=C/C=C/c3ccccc3)c3ccccc3n2)cc1	83.6 µM (inactive)	33.6 µM (inactive)	30 µM (inactive)	74.6 µM (inactive)	57.3 µM (inactive)	29.4 µM (inactive)	17.4 µM (inactive)	23.1 µM (inactive)	33.5 µM (inactive)	28.6 µM (inactive)	34.2 µM (inactive)	19.1 µM (inactive)	23.8 µM (inactive)	19.2 µM (inactive)	17.1 µM (inactive)	25.9 µM (inactive)	> 100 µM (inactive)	24.9 µM (inactive)	15 µM (inactive)
CC(NC(=O)OCc1ccccc1)NC(=O)OC(C)(C)C (stereo not drawn)	> 100 µM (inactive)	> 100 µM (inactive)	> 100 µM (inactive)	> 100 µM (inactive)	> 100 µM (inactive)	> 100 µM (inactive)	> 100 µM (inactive)	> 100 µM (inactive)	> 100 µM (inactive)	73.6 µM (inactive)	> 100 µM (inactive)	> 100 µM (inactive)	> 100 µM (inactive)	> 100 µM (inactive)	> 100 µM (inactive)	> 100 µM (inactive)	> 100 µM (inactive)	> 100 µM (inactive)	> 100 µM (inactive)
CC(C)=C[C@@H]1O[C@H](O)[C@@H]([C@H]2CC[C@@]3(C)[C@@H]4CC[C@H]5C(C)(C)C(=O)CC[C@@]56C[C@@]46CC[C@]23C)[C@@H]1O	15.3 µM (inactive)	17.7 µM (inactive)	16.8 µM (inactive)	15.9 µM (inactive)	20.1 µM (inactive)	21 µM (inactive)	23.1 µM (inactive)	20.1 µM (inactive)	17.6 µM (inactive)	19.5 µM (inactive)	22.8 µM (inactive)	18.1 µM (inactive)	16.5 µM (inactive)	19.5 µM (inactive)	18.1 µM (inactive)	16.1 µM (inactive)	11.7 µM (inactive)	20 µM (inactive)	18.5 µM (inactive)
CCOC(=O)c1nc2c3c(ncn2n1)Oc1c(c(-c2ccccc2)nn1-c1ccccc1)C3c1ccc(Cl)cc1 (stereo not drawn)	> 100 µM (inactive)	> 100 µM (inactive)	> 100 µM (inactive)	> 100 µM (inactive)	> 100 µM (inactive)	> 100 µM (inactive)	> 100 µM (inactive)	> 100 µM (inactive)	> 100 µM (inactive)	> 100 µM (inactive)	> 100 µM (inactive)	> 100 µM (inactive)	> 100 µM (inactive)	–	> 100 µM (inactive)	> 100 µM (inactive)	> 100 µM (inactive)	> 100 µM (inactive)	–
Nc1cnc2c(c1)c(=O)nc1n2CCS1	64 µM (inactive)	86.9 µM (inactive)	> 100 µM (inactive)	> 100 µM (inactive)	> 100 µM (inactive)	–	> 100 µM (inactive)	> 100 µM (inactive)	> 100 µM (inactive)	> 100 µM (inactive)	> 100 µM (inactive)	> 100 µM (inactive)	> 100 µM (inactive)	–	> 100 µM (inactive)	> 100 µM (inactive)	> 100 µM (inactive)	> 100 µM (inactive)	39.3 µM (inactive)

Reference: ChEMBL document CHEMBL1201862, “PubChem BioAssay data set” (2004)
